Where a name gives a salt, the structure may show the parent alone.
Key:
TBK1 = target: T1, TBK1 (Homo sapiens, UniProt Q9UHD2); experiment: TBK Biochemical Assay; conditions: read-out: TBK1 IC50
T1 sequence (Q9UHD2 1-729): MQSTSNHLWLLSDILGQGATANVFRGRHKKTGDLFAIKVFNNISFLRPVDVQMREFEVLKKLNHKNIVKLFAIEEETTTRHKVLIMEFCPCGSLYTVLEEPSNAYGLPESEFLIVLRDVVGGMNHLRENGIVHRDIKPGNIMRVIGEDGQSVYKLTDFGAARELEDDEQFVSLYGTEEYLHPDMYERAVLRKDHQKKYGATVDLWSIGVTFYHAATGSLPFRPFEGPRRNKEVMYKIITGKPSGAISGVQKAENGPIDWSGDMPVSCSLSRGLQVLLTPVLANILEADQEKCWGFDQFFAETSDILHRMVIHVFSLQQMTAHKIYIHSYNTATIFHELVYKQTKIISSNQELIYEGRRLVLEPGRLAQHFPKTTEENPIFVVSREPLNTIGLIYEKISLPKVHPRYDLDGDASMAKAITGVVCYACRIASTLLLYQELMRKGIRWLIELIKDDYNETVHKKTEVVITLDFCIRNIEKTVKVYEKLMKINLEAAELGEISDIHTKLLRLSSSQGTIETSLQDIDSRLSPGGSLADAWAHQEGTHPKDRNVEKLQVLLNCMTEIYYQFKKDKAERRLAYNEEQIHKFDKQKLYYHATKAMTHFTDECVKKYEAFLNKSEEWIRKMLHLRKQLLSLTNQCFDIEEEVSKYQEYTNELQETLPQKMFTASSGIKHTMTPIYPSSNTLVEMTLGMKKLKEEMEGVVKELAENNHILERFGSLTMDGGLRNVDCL
Outline: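 Caliper LabChip mobility-shift readout of substrate and product after 90 min of TBK1 reaction at 25° C and stop-buffer addition. Compounds tested in 1:4 serial dilution over 10 points from 30 uM final at 1% DMSO; staurosporine 10 uM final defines full inhibition.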

IKKε = target: T2, IKKε (Homo sapiens, UniProt Q14164); experiment: IKKe Biochemical Assay; conditions: read-out: IKKε IC50
T2 sequence (Q14164 1-716): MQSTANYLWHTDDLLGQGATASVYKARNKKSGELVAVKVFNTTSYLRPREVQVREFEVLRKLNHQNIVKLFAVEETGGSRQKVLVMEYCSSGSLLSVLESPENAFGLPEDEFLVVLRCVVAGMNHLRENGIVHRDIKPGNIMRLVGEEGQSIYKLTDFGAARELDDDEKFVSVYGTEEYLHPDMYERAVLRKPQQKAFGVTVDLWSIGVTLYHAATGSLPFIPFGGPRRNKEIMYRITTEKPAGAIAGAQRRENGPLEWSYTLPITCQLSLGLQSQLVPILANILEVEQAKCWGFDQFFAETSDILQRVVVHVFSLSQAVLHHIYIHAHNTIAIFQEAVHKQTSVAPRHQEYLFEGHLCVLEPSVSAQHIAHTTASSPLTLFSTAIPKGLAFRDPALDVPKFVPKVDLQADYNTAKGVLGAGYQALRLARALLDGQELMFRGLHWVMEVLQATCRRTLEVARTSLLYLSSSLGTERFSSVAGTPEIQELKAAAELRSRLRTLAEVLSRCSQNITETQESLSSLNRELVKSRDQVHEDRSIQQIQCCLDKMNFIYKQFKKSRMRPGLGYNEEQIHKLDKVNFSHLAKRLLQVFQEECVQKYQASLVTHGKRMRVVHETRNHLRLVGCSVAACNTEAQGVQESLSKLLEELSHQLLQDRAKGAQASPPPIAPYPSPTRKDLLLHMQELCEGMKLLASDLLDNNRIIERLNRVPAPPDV
Outline: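 Activity was measured as mobility-shift separation of phosphorylated from unphosphorylated substrate on a LabChip EZ Reader. Compound was titrated from 30 uM final in 10 points, 1:4 steps, with 1% DMSO, and enzyme plus substrate reacted 90 min at 25° C before stop buffer. Control wells held 10 uM staurosporine.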

SMILES | IC50 (TBK1) | IC50 (IKKε)
COc1nc(C(=O)N(C)C)ccc1-c1cc2nccc(-c3ccc(OC4CCOCC4)c(C#N)c3)c2o1 [Compound 271, 5-(7-(3-cyano-4-(tetrahydro-2H-pyran-4-yloxy)phenyl)furo[3,2-b]pyridin-2-yl)-6-methoxy-N,N-dimethylpicolinamide] | < 100 nM | < 100 nM
COc1cc(C(=O)N(C)C)cnc1-c1cc2nccc(-c3ccc(OC4CCOCC4)c(C#N)c3)c2o1 [Compound 274, 6-(7-(3-cyano-4-(tetrahydro-2H-pyran-4-yloxy)phenyl)furo[3,2-b]pyridin-2-yl)-5-methoxy-N,N-dimethylnicotinamide hydrochloride] | < 100 nM | < 100 nM
CN(C)C(=O)c1ccc(-c2cc3nccc(-c4ccc(C5(N6CCOCC6)CC5)c(C#N)c4)c3o2)cc1 [Compound 287, 4-(7-[3-cyano-4-[1-(morpholin-4-yl)cyclopropyl]phenyl]furo[3,2-b]pyridin-2-yl)-N,N-dimethylbenzamide hydrochloride] | > 5000 nM | > 5000 nM
COc1cc(C(=O)N(C)CCO)ccc1-c1cc2ncc(C3CC3)c(-c3ccc(NC4CCOCC4)c(C#N)c3)c2o1 [Compound 305, 4-(7-[3-cyano-4-[(oxan-4-yl)amino]phenyl]-6-cyclopropylfuro[3,2-b]pyridin-2-yl)-N-(2-hydroxyethyl)-3-methoxy-N-methylbenzamide] | > 5000 nM | > 5000 nM
COc1cc(C(=O)N(C)CCO)ccc1-c1cc2ncc(C3CC3)c(-c3ccc(OC4CCOCC4)c(C#N)c3)c2o1 [Compound 306, 4-(7-(3-cyano-4-(tetrahydro-2H-pyran-4-yloxy)phenyl)-6-cyclopropylfuro[3,2-b]pyridin-2-yl)-N-(2-hydroxyethyl)-3-methoxy-N-methylbenzamide] | > 5000 nM | > 5000 nM
COc1cc(C(=O)N(C)C)ccc1-c1cc2nccc(-c3cc(C#N)c(OC4CCOCC4)c(C4CC4)c3)c2o1 [Compound 307, 4-(7-(3-cyano-5-cyclopropyl-4-(tetrahydro-2H-pyran-4-yloxy)phenyl)furo[3,2-b]pyridin-2-yl)-3-methoxy-N,N-dimethylbenzamide] | 100 to 1000 nM | 100 to 1000 nM
COc1cc(C(=O)N(C)C)ccc1-c1cc2nccc(-c3cc(C#N)c(NC4CCOCC4)c(C4CC4)c3)c2o1 [Compound 308, 4-(7-(3-cyano-5-cyclopropyl-4-(tetrahydro-2H-pyran-4-ylamino)phenyl)furo[3,2-b]pyridin-2-yl)-3-methoxy-N,N-dimethylbenzamide] | > 5000 nM | > 5000 nM
COc1cc(C(=O)N(C)C)cnc1-c1cc2ncc(C)c(-c3ccc(NC4CCOCC4)c(C#N)c3)c2o1 [Compound 319, 6-(7-(3-cyano-4-(tetrahydro-2H-pyran-4-ylamino)phenyl)-6-methylfuro[3,2-b]pyridin-2-yl)-5-methoxy-N,N-dimethylnicotinamide] | 1000 to 5000 nM | 1000 to 5000 nM
COc1cc(C(=O)N(C)C)cnc1-c1cc2ncc(C)c(-c3ccc(OC4CCOCC4)c(C#N)c3)c2o1 [Compound 320, 6-(7-(3-cyano-4-(tetrahydro-2H-pyran-4-yloxy)phenyl)-6-methylfuro[3,2-b]pyridin-2-yl)-5-methoxy-N,N-dimethylnicotinamide] | 1000 to 5000 nM | 1000 to 5000 nM
COc1cc(C(=O)N(C)C)cnc1-c1cc2ncc(C)c(-c3ccc(OC4CCOCC4)c(C#N)n3)c2o1 [Compound 321, 6-[7-[6-cyano-5-(oxan-4-yloxy)pyridin-2-yl]-6-methylfuro[3,2-b]pyridin-2-yl]-5-methoxy-N,N-dimethylpyridine-3-carboxamide hydrochloride] | 100 to 1000 nM | 100 to 1000 nM
COc1cc(C(=O)N(C)C)cnc1-c1cc2ncc(C3CC3)c(-c3ccc(OC4CCOCC4)c(C#N)c3)c2o1 [Compound 323, 6-(7-(3-cyano-4-(tetrahydro-2H-pyran-4-yloxy)phenyl)-6-cyclopropylfuro[3,2-b]pyridin-2-yl)-5-methoxy-N,N-dimethylnicotinamide] | > 5000 nM | > 5000 nM
COc1cc(C(=O)N(C)CCO)cnc1-c1cc2ncc(C)c(-c3ccc(OC4CCOCC4)c(C#N)c3)c2o1 [Compound 330, 6-(7-(3-cyano-4-(tetrahydro-2H-pyran-4-yloxy)phenyl)-6-methylfuro[3,2-b]pyridin-2-yl)-N-(2-hydroxyethyl)-5-methoxy-N-methylnicotinamide] | 1000 to 5000 nM | 1000 to 5000 nM
COc1cc(C(=O)N(C)CCO)cnc1-c1cc2ncc(C(C)C)c(-c3ccc(OC4CCOCC4)c(C#N)c3)c2o1 [Compound 333, 6-[7-[3-cyano-4-(oxan-4-yloxy)phenyl]-6-(propan-2-yl)furo[3,2-b]pyridin-2-yl]-N-(2-hydroxyethyl)-5-methoxy-N-methylpyridine-3-carboxamide] | > 5000 nM | > 5000 nM
COc1cc(C(=O)N(C)C)cnc1-c1cc2ncc(Cl)c(-c3ccc(OC4CCOCC4)c(C#N)c3)c2o1 [Compound 336, 6-[6-chloro-7-[3-cyano-4-(oxan-4-yloxy)phenyl]furo[3,2-b]pyridin-2-yl]-5-methoxy-N,N-dimethylpyridine-3-carboxamide hydrochloride] | 1000 to 5000 nM | 1000 to 5000 nM
COc1cc(C(=O)N(C)C)cnc1-c1cc2ncc(OC)c(-c3ccc(NC4CCOCC4)c(C#N)c3)c2o1 [Compound 340, 6-(7-[3-cyano-4-[(oxan-4-yl)amino]phenyl]-6-methoxyfuro[3,2-b]pyridin-2-yl)-5-methoxy-N,N-dimethylpyridine-3-carboxamide] | 100 to 1000 nM | 1000 to 5000 nM
COc1cc(C(=O)N(C)CCO)cnc1-c1cc2ncc(C3CC3)c(-c3ccc(OC4CCOCC4)c(C#N)c3)c2o1 [Compound 341, 6-[7-[3-cyano-4-(oxan-4-yloxy)phenyl]-6-cyclopropylfuro[3,2-b]pyridin-2-yl]-N-(2-hydroxyethyl)-5-methoxy-N-methylpyridine-3-carboxamide hydrochloride] | > 5000 nM | > 5000 nM
COc1cc(C(=O)N(C)CCO)cnc1-c1cc2ncc(Cl)c(-c3ccc(OC4CCOCC4)c(C#N)c3)c2o1 [Compound 342, 6-[6-chloro-7-[3-cyano-4-(oxan-4-yloxy)phenyl]furo[3,2-b]pyridin-2-yl]-N-(2-hydroxyethyl)-5-methoxy-N-methylpyridine-3-carboxamide hydrochloride] | 1000 to 5000 nM | 1000 to 5000 nM
COc1cc(C(=O)N(C)CCO)cnc1-c1cc2ncc(OC)c(-c3ccc(OC4CCOCC4)c(C#N)c3)c2o1 [Compound 343, 6-[7-[3-cyano-4-(oxan-4-yloxy)phenyl]-6-methoxyfuro[3,2-b]pyridin-2-yl]-N-(2-hydroxyethyl)-5-methoxy-N-methylpyridine-3-carboxamide] | 100 to 1000 nM | 100 to 1000 nM
COc1cc(C(=O)N(C)C)cnc1-c1cc2ncc(F)c(-c3ccc(OC4CCOCC4)c(C#N)n3)c2o1 [Compound 351, 6-[7-[6-cyano-5-(oxan-4-yloxy)pyridin-2-yl]-6-fluorofuro[3,2-b]pyridin-2-yl]-5-methoxy-N,N-dimethylpyridine-3-carboxamide hydrochloride] | 100 to 1000 nM | 100 to 1000 nM
COc1cc(C(=O)N(C)CCO)cnc1-c1cc2ncc(F)c(-c3ccc(OC4CCOCC4)c(C#N)n3)c2o1 [Compound 354, 6-[7-[6-cyano-5-(oxan-4-yloxy)pyridin-2-yl]-6-fluorofuro[3,2-b]pyridin-2-yl]-N-(2-hydroxyethyl)-5-methoxy-N-methylpyridine-3-carboxamide hydrochloride] | 100 to 1000 nM | 1000 to 5000 nM

Source: US10428080B2, “TBK/IKK inhibitor compounds and uses thereof” (Merck Patent GmbH, priority 2015, dated 2019)
